Laboratory results from patent US7994183B2, “Solid preparation comprising 2-[[6-[(3R)-3-amino-1-piperidinyl]-3,4-dihydro-3-methyl-2,4-dioxo-1(2H)-pyrimidinyl]methyl]-4-fluorobenzonitrile” (Takeda Pharmaceutical Company Limited, priority 2007, dated 2011).

Experiment: storage stability of compound (A) succinate alone or mixed with additive; amount of analogs by HPLC (Experimental Example 1A)
Format: physicochemical
Description: Comparative Examples 1A, 2A and 3A were preserved in a glass bottle with an opened cap at 40° C., 75% RH for 2 weeks, and the amount of analogs due to decomposition of compound (A) was measured, based on which the storage stability was evaluated.
The amounts of the analogs were measured by high performance liquid chromatography (HPLC) under the conditions of Table 11A. As a result, an analogue that specifically increases at relative retention time (RRT) of about 1.65 was observed.

total amount of analogs (%) (40° C./75% RH 2 wk (with opened cap), glass bottle): 0.30%
total amount of analogs (%) (initial): 0.30%
Compound: Cn1c(=O)cc(N2CCC[C@@H](N)C2)n(Cc2cc(F)ccc2C#N)c1=O [compound (A), 2-[[6-[(3R)-3-amino-1-piperidinyl]-3,4-dihydro-3-methyl-2,4-dioxo-1(2H)-pyrimidinyl]methyl]-4-fluorobenzonitrile]
